According to publication PMC7508748, “Active tyrosine phenol-lyase aggregates induced by terminally attached functional peptides in Escherichia coli” (Journal of Industrial Microbiology & Biotechnology, 2020):

What was measured:
Test in all cases: Lineweaver-Burk, initial rates
Format in all cases: biochemical
Conditions in all cases: 20 °C, PLP 30 µM, 0.1-6 mM L-DOPA
TPL-EAK16 = system: TPL-EAK16
TPL-18A = system: TPL-18A
Text: Lineweaver-Burk, initial rates on TPL-18A | The Vmax of TPL-DKL6, TPL-ELP10, TPL-EAK16, TPL-18A, and TPL-GFIL16 was higher

TPL = system: T1, TPL
T1 construct: 6xHis tag kept, pET28a, E. coli BL21(DE3) host, His-Trap purified; 52 kDa; tetramer

TPL-ELP10 = system: TPL-ELP10
TPL-GFIL16 = system: TPL-GFIL16
TPL-DKL6 = system: TPL-DKL6

Compound `N[C@@H](Cc1ccc(O)c(O)c1)C(=O)O` [L-DOPA] has a Km (TPL-EAK16) of 2360 ± 26 µM, a Km (TPL-18A) of 2180 ± 356 µM and a Km (TPL) of 2190 µM. For the same compound, the Km (TPL-ELP10) was 2680 ± 129 µM, the Km (TPL-GFIL16) was 2220 ± 14 µM and the Km (TPL-DKL6) was 2320 ± 504 µM.
